In ChEMBL document CHEMBL3881526, “Selective androgen receptor modulators and method of use thereof” (2007):
Activity calls are given as the source filed them. The rule behind the calls is not given here.

Columns and labels:
Bone marrow cell = assay: Induction of differentiation of rat primary bone marrow cells toward osteoblast lineage assessed as ALP activity at 1 uM by spectrophotometric analysis; type: functional, cell-based
Rattus norvegicus [1] = assay: Androgenic activity in ORX Sprague-Dawley rat assessed as restoration of prostate weight at 0.1 to 1 ug/day delivered at constant rate for 14 days via subcutaneous osmotic pumps; type: functional
Rattus norvegicus [2] = assay: Androgenic activity in ORX Sprague-Dawley rat assessed as restoration of seminal vesicles weight at 0.1 to 1 ug/day delivered at constant rate for 14 days via subcutaneous osmotic pumps; type: functional
Rattus norvegicus [3] = assay: Anabolic activity in ORX Sprague-Dawley rat assessed as restoration of levator ani muscle weight at 0.1 to 1 ug/day delivered at constant rate for 14 days via subcutaneous osmotic pumps; type: functional
Rattus norvegicus [4] = assay: Androgenic activity in ORX Sprague-Dawley rat assessed as restoration of seminal vesicles weight at 100 ug/day delivered at constant rate for 14 days via subcutaneous osmotic pumps; type: functional
Rattus norvegicus [5] = assay: Androgenic activity in ORX Sprague-Dawley rat assessed as restoration of prostate weight at 100 ug/day delivered at constant rate for 14 days via subcutaneous osmotic pumps; type: functional
Rattus norvegicus [6] = assay: Anabolic activity in ORX Sprague-Dawley rat assessed as restoration of levator ani muscle weight at 100 ug/day delivered at constant rate for 14 days via subcutaneous osmotic pumps; type: functional, tissue-based
Rattus norvegicus [7] = assay: Suppression of serum FSH in ORX Sprague-Dawley rat at 0.1 to 1 mg/day delivered at constant rate for 14 days via subcutaneous osmotic pumps; type: functional

C[C@]12CCC(=O)C[C@@H]1CC[C@@H]1[C@@H]2CC[C@]2(C)[C@@H](O)CC[C@@H]12
Activity (Bone marrow cell): Active

C[C@](O)(COc1ccc(Cl)cc1)C(=O)Nc1ccc([N+](=O)[O-])c(C(F)(F)F)c1
Activity (Rattus norvegicus [1]): <20% | Activity (Rattus norvegicus [2]): <20% | Activity (Rattus norvegicus [3]): Active

C[C@](O)(COc1ccc(I)cc1)C(=O)Nc1ccc([N+](=O)[O-])c(C(F)(F)F)c1
Activity (Rattus norvegicus [1]): <40% | Activity (Rattus norvegicus [2]): <40% | Activity (Rattus norvegicus [3]): Active

CCC(=O)O[C@H]1CC[C@H]2[C@@H]3CCC4=CC(=O)CC[C@]4(C)[C@H]3CC[C@]12C
Activity (Rattus norvegicus [4]): Active | Activity (Rattus norvegicus [5]): Active | Activity (Rattus norvegicus [6]): Active | Activity (Rattus norvegicus [7]): Active

C[C@](O)(COc1ccc(Br)cc1)C(=O)Nc1ccc([N+](=O)[O-])c(C(F)(F)F)c1
Activity (Rattus norvegicus [1]): <40% | Activity (Rattus norvegicus [2]): <40% | Activity (Rattus norvegicus [3]): Active

C[C@](O)(COc1ccc(Cl)cc1)C(=O)Nc1ccc(C#N)c(C(F)(F)F)c1
Activity (Rattus norvegicus [1]): Dose-dependent effect | Activity (Rattus norvegicus [2]): Dose-dependent effect | Activity (Rattus norvegicus [3]): Active
